For one experiment, the system named is Osteocalcin−/− mice. Put plainly: Behavioral tests of Osteocalcin−/− mice with ICV infusion (DLT, EPMT, OFT, FST, TST). In kind it is in vivo, mouse. The settings on record: for anxiety / depression: ICV infusion 10 ng/hour, week-long, Osteocalcin−/− mice. The method, then: FIG. 12. Administration of osteocalcin alleviates anxiety and depression. (A-E) Behavioral analyses of adult Osteocalcin^−/− mice receiving recombinant uncarboxylated osteocalcin through intracerebro-ventricular (ICV) infusions. (A) Light and Dark test, (B) Elevated plus maze test, (C) Open field test, (D) Forced swim test, and (E) Tail suspension test performed in a cohort of WT (n=7) and Osteocalcin^−/− infused with vehicle or recombinant uncarboxylated osteocalcin (10 ng/hour). In each set of three bars, the rightmost bar represents the results following administration of osteocalcin.
For osteocalcin delivery to pregnant mice, IP injections (240 ng/day) were performed as soon as a plug was present daily until delivery (E0.5-E18.5). For osteocalcin or leptin infusion in adult Osteocalcin^−/− or ob/ob mice, pumps (Alzet micro-osmotic pump, Model 1002) delivering osteocalcin (300 ng/hr), leptin (50 ng/hr), or vehicle were surgically installed subcutaneously in the backs of 3-month old mice. For the postnatal rescue of cognitive functions in Osteocalcin^−/− mice, osteocalcin (10 ng/hour) or vehicle were delivered intrasubventricularly (icv) as previously described (Ducy et al., 2000, Cell 100:197-207). Leptin and osteocalcin content in sera and tissues were determined by ELISA.
Tail suspension testing was performed as previously described (Mayorga et al., 2001, J. Pharmacology Exper. Therapeutics 298:1101-1107; Steru et al., 1985, Psychopharmacology 85:367-370). Mice were transported a short distance from the holding facility to the testing room and left there undisturbed for at least 1 hour. Mice were individually suspended by the tail (distance from floor was 35 cm) using adhesive tape (distance from tip of tail was 2 cm). […] The parameter recorded was the number of seconds spent immobile. Mice were scored by a highly trained observer, over a 5 min period, blind to the genotype of the mice.
Anxiety and locomotor activity of mice were measured using the open field test (David et al., 2009, Neuron 62:479-493). Each animal was placed in a 43×43 cm open field chamber, and tested for 30 min. Mice were monitored throughout each test session by video tracking and analyzed using Matlab software. Mice were placed individually into the center of the open-field arena and allowed to explore freely. The overall motor activity was quantified as the total distance travelled. The anxiety was quantified measuring the number of rearings and the time and distance spent in the center versus periphery of the open field chamber (in %).
Each mouse was allowed to explore the apparatus for 5 min. Global activity was assessed by measuring the number of entries […] (David et al, 2009, Neuron 62:479-493). Anxiety was assessed by comparing the time spent in the open arms.
The forced swimming test was carried out according to the method described by David et al., 2009, Neuron 62:479-493. Briefly, mice were dropped individually into glass cylinders (height: 25 cm, diameter: 10 cm) containing 10 cm water height., maintained at 23-25° C. Animals were tested for a total of 6 min. The total duration of immobility time was recorded. Mice were considered immobile when they made no attempts to escape with the exception of the movements necessary to keep their heads above the water. Mice were scored by an observer blind to their genotypes.
The test was performed in a quiet, darkened room. Mice were individually housed in cages containing a handful of bedding from their home cage and acclimated to the room at least 1 h before the test. Naïve mice were placed individually in the testing chamber in the dark compartment. The test was 5 min in duration, and time spent and number of entries in light compartments were recorded a highly trained observer, blind to the genotype of the mice. […]

A further experiment relates to wild type mice. Put plainly: Glucose tolerance test after subcutaneous infusion. In kind it is in vivo, mouse. The note with it: 0.3 or 3 ng/hour subcutaneously for 14 days, 120 minutes following glucose injection. The method, then: FIG. 2. Osteocalcin subcutaneous infusion increases glucose tolerance in wild-type mice. Wild-type mice were infused subcutaneously with indicated doses of recombinant osteocalcin or PBS for 14 days before receiving a single injection of glucose. Blood glucose was measured thereafter at indicated times.
For glucose tolerance test (GTT), glucose (2 g/kg body weight (BW)) was injected intraperitoneally (IP) after an overnight fast and blood glucose was monitored using blood glucose strips and the Accu-Check glucometer (Roche) at indicated times.
In another in vivo experiment, the effect of uncarboxylated osteocalcin on glucose tolerance was investigated. Wild type mice were infused subcutaneously with either 0.3 or 3 ng/hour doses of recombinant uncarboxylated osteocalcin or PBS for 14 days before receiving a single injection of glucose. Blood glucose was measured thereafter at the indicated times.

Setting [1] is: listed as undercarboxylated/uncarboxylated osteocalcin.

For the substance “uncarboxylated osteocalcin: Recombinant uncarboxylated mouse osteocalcin, bacterially produced, purified on glutathione beads and cleaved from the GST subunit by thrombin (YLGASVPSPDPLEPTREQCELNPACDELSDQYGLKTAYKRIYGITI)”, the anxiety result is on record as “corrected” with Osteocalcin−/− mice, “alleviates” with Osteocalcin−/− mice (listed as osteocalcin) and “rescued” in the experiment with Osteocalcin−/− mice (setting [1]). For the same substance, the depression result in the experiment on Osteocalcin−/− mice is recorded as “corrected”; in the experiment on Osteocalcin−/− mice (listed as osteocalcin), “alleviates”; in the experiment with Osteocalcin−/− mice (setting [1]), “rescued”. In addition, the learning and memory result in the experiment on Osteocalcin−/− mice (direct administration to the brains of adult Osteocalcin−/− mice) is listed as “rescued”. Besides, the figures for the glucose tolerance result with wild type mice and in the experiment with wild type mice (listed as Osteocalcin) were “increased” and “increases”, respectively.

For the origin of these results see patent publication US11191811B2, “Osteocalcin as a treatment for frailty associated with aging” (THE TRUSTEES OF COLUMBIA UNIVERSITY IN THE CITY OF NEW YORK, priority 2014, dated 2021).
